Some test systems named below: T-47D breast; UACC-257 melanoma; UACC-62 melanoma; K-562 leukemia; SR leukemia; ACHN renal; OVCAR-5 ovarian; KM12 colon.
What all share (assay): inhibition of tumour cell growth, NCI panel, 48 h

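Five concentrations, 48 hours, 96-well plates. Here, GI50 denotes the concentration required for 50% inhibition of growth. Definition used: TGI = concentration required for complete inhibition of growth.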

As for `CS(=O)(=O)c1ccc(Nc2nc(N[C@H]3CCCC[C@H]3N)nc3cc[nH]c(=O)c23)cc1`, the GI50 was 0.891 µM in the assay on T-47D breast; 2.78 µM in the assay on UACC-257 melanoma; 1.5 µM in the assay with UACC-62 melanoma; 1.14 µM in the assay with K-562 leukemia; 0.68 µM in the assay with SR leukemia; 5.24 µM in the assay with ACHN renal. Further, the GI50 was 2.52 µM in the assay on OVCAR-5 ovarian and 0.491 µM with KM12 colon. Also, the TGI in the assay on T-47D breast was 77.6 µM; in the assay on UACC-257 melanoma it was 15.9 µM; with UACC-62 melanoma, 3.5 µM; in the assay with K-562 leukemia it was over 100 µM; in the assay on SR leukemia it was 6.03 µM; in the assay on ACHN renal, 90.1 µM. For the same compound, the results for the TGI in the assay on OVCAR-5 ovarian and with KM12 colon were over 100 µM and 11.9 µM, respectively.
As for `COc1cccc2cc(N(C)c3nc(C)nc4c3CCC4)ccc12`, the GI50 in the assay with T-47D breast is 5.38 µM; in the assay on UACC-257 melanoma, 2.57 µM; in the assay on K-562 leukemia it was under 0.01 µM; in the assay with SR leukemia, under 0.01 µM; in the assay with ACHN renal, under 0.01 µM; with OVCAR-5 ovarian, under 0.01 µM. In addition, in the assay on KM12 colon, the GI50 is under 0.01 µM. In addition, the TGI with T-47D breast was 41.8 µM; in the assay with UACC-257 melanoma, 20.6 µM; in the assay on UACC-62 melanoma it was 18.1 µM; with K-562 leukemia, 31.5 µM; with SR leukemia, 11.3 µM; in the assay with ACHN renal, 13.7 µM. The results for the TGI in the assay with OVCAR-5 ovarian and with KM12 colon were 19.6 µM and 10.7 µM, respectively.
With `CC(C)OC(=S)Nc1ccc(Cl)c(/C=N/OC(C)(C)C)c1`, the TGI in the assay with T-47D breast came out at 38.7 µM; with UACC-257 melanoma, 37.4 µM; with UACC-62 melanoma, 30.9 µM; in the assay with K-562 leukemia it was 43 µM; in the assay on SR leukemia it was 39.3 µM; in the assay with ACHN renal it was 28.7 µM. Further, the TGI in the assay on OVCAR-5 ovarian is 30.8 µM; in the assay on KM12 colon it was 17.6 µM.
`Clc1ccc(-c2c3ccc(=[N+]4CCCCC4)cc-3oc3cc(N4CCCCC4)ccc23)cc1`: the GI50 with UACC-257 melanoma was 0.13 µM; in the assay with UACC-62 melanoma, 0.18 µM; with K-562 leukemia it was 0.153 µM; in the assay on ACHN renal it was 0.0909 µM; in the assay with OVCAR-5 ovarian, 0.145 µM. Besides, the TGI stood at 0.304 µM with UACC-257 melanoma; 0.452 µM in the assay on UACC-62 melanoma; 0.779 µM with K-562 leukemia; 0.229 µM with ACHN renal; 0.323 µM in the assay with OVCAR-5 ovarian.
For `Cc1cc(C)c(C#N)c(Sc2nc(C)c([N+](=O)[O-])c(C)c2C#N)n1`, the GI50 with T-47D breast was 2.29 µM; in the assay with UACC-62 melanoma, 2.96 µM; with K-562 leukemia, 2.9 µM; in the assay on SR leukemia, 2.94 µM; in the assay with ACHN renal it was 1.75 µM; in the assay with OVCAR-5 ovarian, 4.03 µM. The GI50 in the assay on KM12 colon is 3.98 µM. Further, the TGI with T-47D breast was 5.59 µM; in the assay on UACC-62 melanoma, 11.5 µM; in the assay on K-562 leukemia, over 100 µM; in the assay with SR leukemia, over 100 µM; in the assay on ACHN renal it was 3.38 µM; with OVCAR-5 ovarian, 41.1 µM. This compound also returned a TGI in the assay with KM12 colon of 19 µM.
With `COc1ccc(-c2nc(-c3nc4ccc(C)cc4[nH]3)cc3c2[nH]c2ccccc23)cc1`, the GI50 in the assay on T-47D breast was 3.67 µM; in the assay on UACC-257 melanoma, 3.94 µM; in the assay with UACC-62 melanoma it was 3.34 µM; in the assay on K-562 leukemia it was 3.09 µM; in the assay on SR leukemia, 2.68 µM; with ACHN renal, 3.05 µM. Further, the GI50 in the assay with OVCAR-5 ovarian was 6.83 µM; with KM12 colon it was 3.26 µM. For the same compound, the TGI in the assay with T-47D breast was 19.2 µM; with UACC-257 melanoma it was over 100 µM; with UACC-62 melanoma, 23.1 µM; in the assay on K-562 leukemia, over 100 µM; in the assay with SR leukemia it was 27.8 µM; with ACHN renal, over 100 µM. Besides, the results for the TGI in the assay on OVCAR-5 ovarian and in the assay with KM12 colon were over 100 µM and 14 µM, respectively.
On to `COc1ccc(-c2ccc(/C=N/n3c(COc4ccccc4Cl)nn(CN4CCOCC4)c3=S)o2)c([N+](=O)[O-])c1`, for which the GI50 in the assay on T-47D breast is 53.9 µM; with UACC-62 melanoma it was 35 µM; in the assay on K-562 leukemia, 18.2 µM; with ACHN renal it was 33.6 µM; in the assay on OVCAR-5 ovarian, 55.3 µM; in the assay with KM12 colon, 17.1 µM. In addition, the TGI is over 100 µM with T-47D breast; over 100 µM in the assay on UACC-62 melanoma; 41 µM in the assay with K-562 leukemia; over 100 µM with ACHN renal; over 100 µM with OVCAR-5 ovarian; 34.6 µM with KM12 colon.
Take `Cc1ccc([N+](=O)[O-])c2c(NCCNC(=O)c3cc(C(=O)NCCNc4ccnc5c(C)ccc([N+](=O)[O-])c45)n(C)n3)ccnc12`: the TGI is over 100 µM in the assay with T-47D breast; over 100 µM with UACC-257 melanoma; over 83 µM in the assay with UACC-62 melanoma; over 76.4 µM in the assay on K-562 leukemia; over 82 µM in the assay with SR leukemia; over 100 µM with ACHN renal. Besides, the TGI with OVCAR-5 ovarian and in the assay on KM12 colon was over 100 µM each time.
Turning to `CN1Cc2ccccc2/C=C\c2ccccc21`, the TGI with T-47D breast, in the assay with UACC-257 melanoma, with UACC-62 melanoma, in the assay on ACHN renal and in the assay with KM12 colon was over 100 µM throughout.
Turning to `COc1ccc(C(=O)c2cc(C)c(OC)c(C)c2)c(OC)c1NC(C)=O`, the GI50 is over 100 µM in the assay with UACC-257 melanoma; 0.333 µM in the assay with UACC-62 melanoma; 0.937 µM in the assay on K-562 leukemia; 0.307 µM in the assay with SR leukemia; 0.0944 µM in the assay with ACHN renal; 0.191 µM in the assay on OVCAR-5 ovarian. The GI50 in the assay on KM12 colon was 0.153 µM. For the same compound, the TGI in the assay on UACC-257 melanoma, with UACC-62 melanoma, in the assay on K-562 leukemia, in the assay with SR leukemia, in the assay on ACHN renal and in the assay on OVCAR-5 ovarian was over 100 µM each time. The compound also showed a TGI with KM12 colon of over 100 µM.
As to `O=C(CN(/C=C/C(=O)C(F)(F)F)c1ccc(Cl)cc1)c1ccc(Cl)c(Cl)c1`, the GI50 in the assay on T-47D breast was 10.3 µM; in the assay with UACC-257 melanoma, 14 µM; with UACC-62 melanoma it was 3.98 µM; with SR leukemia, 2.26 µM; in the assay on ACHN renal, 2.48 µM; in the assay on OVCAR-5 ovarian it was 13.4 µM. Also, the GI50 with KM12 colon is 2.62 µM. For the same compound, the TGI in the assay on T-47D breast stood at 29.9 µM; in the assay with UACC-257 melanoma it was 30.2 µM; in the assay with UACC-62 melanoma, 16.1 µM; with SR leukemia it was 6.96 µM; in the assay on ACHN renal, 9.74 µM; in the assay on OVCAR-5 ovarian, 27.1 µM. In the assay on KM12 colon, this compound registered a TGI of 10.8 µM.
On to `O=[N+]([O-])c1ccc(Cl)c(CNc2ncnc3c2ncn3C2CCCCO2)c1` (centres undefined), for which the TGI is over 100 µM in the assay on T-47D breast; over 100 µM in the assay with UACC-62 melanoma; over 100 µM in the assay on K-562 leukemia; 64.4 µM in the assay on SR leukemia; over 100 µM with ACHN renal; over 100 µM in the assay with OVCAR-5 ovarian. For the same compound, the TGI with KM12 colon is over 100 µM.

For the origin of these results see PubChem BioAssay (NCI).
